In brackets after ≈: the same amount, converted by molar mass.
Assays:
Escherichia coli [1] = assay: Antimicrobial activity against Escherichia coli ATCC 25922 at 1 mg/ml incubated for 24 hrs by cup diffusion assay; format: functional; conditions: ATCC 25922, 24 h, read-out: DIZ
Pseudomonas aeruginosa [2] = assay: Antimicrobial activity against Pseudomonas aeruginosa ATCC 27853 at 1 mg/ml incubated for 24 hrs by cup diffusion assay; format: functional; conditions: ATCC 27853, 24 h, read-out: DIZ
Lactococcus lactis [3] = assay: Antimicrobial activity against Streptococcus lactis ATCC 14591 at 1 mg/ml incubated for 24 hrs by cup diffusion assay; format: functional; conditions: ATCC 14591, 24 h, read-out: DIZ
Staphylococcus aureus [4] = assay: Antimicrobial activity against Staphylococcus aureus ATCC 25923 at 1 mg/ml incubated for 24 hrs by cup diffusion assay; format: functional; conditions: ATCC 25923, 24 h, read-out: DIZ
Candida albicans [5] = assay: Antimicrobial activity against Candida albicans ATCC 14154 at 1 mg/ml incubated for 24 hrs by cup diffusion assay; format: functional; conditions: for zone of inhibition at 1000 µg/mL: ATCC 14154, 24 h, read-out: DIZ
Aspergillus flavus [6] = assay: Antimicrobial activity against Aspergillus flavus ATCC 23554 at 1 mg/ml incubated for 24 hrs by cup diffusion assay; format: functional; conditions: for zone of inhibition at 1000 µg/mL: ATCC 23554, 24 h, read-out: DIZ
Escherichia coli [7] = assay: Antimicrobial activity against Escherichia coli ATCC 25922 incubated for 24 hrs by CLSI/NCCLS protocol based method; format: functional; conditions: ATCC 25922, 24 h
Pseudomonas aeruginosa [8] = assay: Antimicrobial activity against Pseudomonas aeruginosa ATCC 27853 incubated for 24 hrs by CLSI/NCCLS protocol based method; format: functional; conditions: ATCC 27853, 24 h
Lactococcus lactis [9] = assay: Antimicrobial activity against Streptococcus lactis ATCC 14591 incubated for 24 hrs by CLSI/NCCLS protocol based method; format: functional; conditions: ATCC 14591, 24 h
Staphylococcus aureus [10] = assay: Antimicrobial activity against Staphylococcus aureus ATCC 25923 incubated for 24 hrs by CLSI/NCCLS protocol based method; format: functional; conditions: ATCC 25923, 24 h
MCF7 = assay: Growth inhibition of human MCF7 cells incubated for 48 hrs by MTT assay; format: functional, cell-based; conditions: MCF7, 48 h
HT-29 = assay: cells; conditions: Homo sapiens, HT-29, 48 h
HepG2 = assay: cells; conditions: Homo sapiens, HepG2, 48 h
Candida albicans [11] = assay: Antimicrobial activity against Candida albicans ATCC 14154 incubated for 24 hrs by CLSI/NCCLS protocol based method; format: functional
Aspergillus flavus [12] = assay: Antimicrobial activity against Aspergillus flavus ATCC 23554 incubated for 24 hrs by CLSI/NCCLS protocol based method; format: functional

| Molecule | zone of inhibition at 1000 µg/mL (Escherichia coli [1]) | zone of inhibition at 1000 µg/mL (Pseudomonas aeruginosa [2]) | zone of inhibition at 1000 µg/mL (Lactococcus lactis [3]) | zone of inhibition at 1000 µg/mL (Staphylococcus aureus [4]) | zone of inhibition at 1000 µg/mL (Candida albicans [5]) | zone of inhibition at 1000 µg/mL (Aspergillus flavus [6]) | MIC (Escherichia coli [7]) | MIC (Pseudomonas aeruginosa [8]) | MIC (Lactococcus lactis [9]) | MIC (Staphylococcus aureus [10]) | IC50 (MCF7) | IC50 (HT-29) | IC50 (HepG2) | MIC (Candida albicans [11]; ATCC 14154, 24 h) | MIC (Aspergillus flavus [12]; ATCC 23554, 24 h) | inhibition zone (IZ) (Candida albicans [5]) | inhibition zone (IZ) (Aspergillus flavus [6]) | MIC (Candida albicans [11]) | MIC (Aspergillus flavus [12]) |
| --- | --- | --- | --- | --- | --- | --- | --- | --- | --- | --- | --- | --- | --- | --- | --- | --- | --- | --- | --- |
| Cc1cc(C)n(C(=O)c2[nH]nc(-c3ccc(Cl)cc3)c2N)n1 | 22 mm | 20 mm | 30 mm | 32 mm | 18 mm | 26 mm | 20 µg/mL (≈ 63.3 µM) | 15 µg/mL (≈ 47.5 µM) | 15 µg/mL (≈ 47.5 µM) | 25 µg/mL (≈ 79.2 µM) | 1.45 µM | 1.45 µM | 1.62 µM |  |  |  |  |  |  |
| Cc1nn(C(=O)c2[nH]nc(-c3ccc(Cl)cc3)c2N)c(C)c1Cl | 15 mm | 13 mm | 16 mm | 15 mm | 16 mm | 20 mm | 15 µg/mL (≈ 42.8 µM) | 10 µg/mL (≈ 28.6 µM) | 5 µg/mL (≈ 14.3 µM) | 10 µg/mL (≈ 28.6 µM) | 0.78 µM | 1.1 µM | 0.97 µM | 45 µg/mL (≈ 128 µM) | 50 µg/mL (≈ 143 µM) |  |  |  |  |
| Cc1csc(NNC(=O)c2[nH]nc(-c3ccc(Cl)cc3)c2N)n1 | 16 mm | 12 mm | 22 mm | 28 mm | 26 mm | 28 mm | 20 µg/mL (≈ 57.3 µM) | 15 µg/mL (≈ 43 µM) | 10 µg/mL (≈ 28.7 µM) | 15 µg/mL (≈ 43 µM) | 0.22 µM | 0.42 µM | 0.56 µM | 40 µg/mL (≈ 115 µM) | 45 µg/mL (≈ 129 µM) |  |  |  |  |
| NC(=S)NNC(=O)c1[nH]nc(-c2ccc(Cl)cc2)c1N | 22 mm | 16 mm | 30 mm | 34 mm | 20 mm | 25 mm | 25 µg/mL (≈ 80.4 µM) | 40 µg/mL (≈ 129 µM) | 35 µg/mL (≈ 113 µM) | 30 µg/mL (≈ 96.5 µM) | 4.35 µM | 5.59 µM | 4.06 µM | 50 µg/mL (≈ 161 µM) | 45 µg/mL (≈ 145 µM) |  |  |  |  |
| CO/N=C(\C(=O)N[C@@H]1C(=O)N2C(C(=O)O)=C(COC(C)=O)CS[C@H]12)c1csc(N)n1 [CEFOTAXIME] | 26 mm | 18 mm | 30 mm | 31 mm |  |  | 13 µg/mL (≈ 28.5 µM) | 10 µg/mL (≈ 22 µM) | 12 µg/mL (≈ 26.3 µM) | 15 µg/mL (≈ 32.9 µM) |  |  |  |  |  |  |  |  |  |
| Nn1c(=S)[nH]c2c(-c3ccc(Cl)cc3)n[nH]c2c1=O | 8 mm | 10 mm | 15 mm | 20 mm | 15 mm | 25 mm | 20 µg/mL (≈ 68.1 µM) | 15 µg/mL (≈ 51.1 µM) | 20 µg/mL (≈ 68.1 µM) | 20 µg/mL (≈ 68.1 µM) | 0.84 µM | 1.33 µM | 1.55 µM | 40 µg/mL (≈ 136 µM) | 40 µg/mL (≈ 136 µM) |  |  |  |  |
| CC1=NN(C(=O)c2[nH]nc(-c3ccc(Cl)cc3)c2N)C(=O)C1 | 22 mm | 20 mm | 26 mm | 32 mm | 18 mm | 35 mm | 25 µg/mL (≈ 78.7 µM) | 20 µg/mL (≈ 62.9 µM) | 20 µg/mL (≈ 62.9 µM) | 30 µg/mL (≈ 94.4 µM) | 2.54 µM | 2.78 µM | 2.53 µM | 35 µg/mL (≈ 110 µM) | 40 µg/mL (≈ 126 µM) |  |  |  |  |
| Cc1nc2c(-c3ccc(Cl)cc3)n[nH]c2c2nnnn12 | 10 mm | 8 mm | 20 mm | 18 mm | 22 mm | 26 mm | 10 µg/mL (≈ 35 µM) | 15 µg/mL (≈ 52.5 µM) | 10 µg/mL (≈ 35 µM) | 20 µg/mL (≈ 70 µM) | 0.13 µM | 0.29 µM | 0.36 µM | 22 µg/mL (≈ 77 µM) |  |  |  |  |  |
| NYSTATIN |  |  |  |  |  |  |  |  |  |  |  |  |  |  |  | 25 mm | 30 mm | 20 µg/mL | 25 µg/mL |
| Cc1nc(Cl)c2[nH]nc(-c3ccc(Cl)cc3)c2n1 | 12 mm | 10 mm | 15 mm | 18 mm | 22 mm | 25 mm | 50 µg/mL (≈ 179 µM) | 35 µg/mL (≈ 125 µM) | 35 µg/mL (≈ 125 µM) | 40 µg/mL (≈ 143 µM) | 1.77 µM | 1.52 µM | 1.62 µM | 22 µg/mL (≈ 78.8 µM) |  |  |  |  |  |

Reference: ChEMBL document CHEMBL3792355, “Novel pyrazole derivatives with oxa/thiadiazolyl, pyrazolyl moieties and pyrazolo[4,3-d]-pyrimidine derivatives as potential antimicrobial and anticancer agents” (Bioorg Med Chem Lett, 2016)
